Data taken from the supplement of paper PMC10702517.
± gives the standard deviation.

Assay: chemical recovery from spiked human plasma; higher = better extraction
Conditions: pooled human plasma
[1] = extraction method: SPE only (HLB 96-well), PES comparison experiment
[2] = extraction method: PES+SPE (3 d PDMS equilibration then HLB SPE)
[3] = extraction method: SPE only (HLB 96-well)
[4] = extraction method: solvent precipitation (ACN + hexane)

Row | Compound | chemical recovery [1] [%] | chemical recovery [2] [%] | chemical recovery [3] [%] | chemical recovery [4] [%]
1 | O=C(O)Cc1c[nH]c2ccccc12 [Indole-3-acetic acid] | 79.9 ± 19 |  |  | 
2 | O=C(O)/C=C/c1c[nH]c2ccccc12 [Indole-3-acrylic-acid] |  | 37.5 ± 5 | 45.2 ± 13 | 
3 | c1ccc2[nH]ccc2c1 [Indole] |  |  | 8.76 ± 5.2 | 52.5 ± 14
4 | CC(C)C1CCC(Cc2ccc(Cl)cc2)C1(O)Cn1cncn1 (stereo not drawn) [Ipconazole] |  | 56.7 ± 6 | 45.5 ± 5.7 | 75.8 ± 5.9
5 | CC(C)NC(=O)N1CC(=O)N(c2cc(Cl)cc(Cl)c2)C1=O [Iprodione] |  |  | 28.3 ± 5.6 | 6.49 ± 2.1
6 | CCC(Cc1ccccc1)(C(=O)c1ccc(N2CCOCC2)cc1)N(C)C (stereo not drawn) [Irgacure-369] |  | 19.4 ± 3.7 | 36.8 ± 1.1 | 77.2 ± 5.5
7 | CCCCCCCCSc1nc(Nc2cc(C(C)(C)C)c(O)c(C(C)(C)C)c2)nc(SCCCCCCCC)n1 [Irganox-565] |  |  | 0.236 ± 0.16 | 
8 | CC(C)(C)c1cc(CCC(=O)NCCCCCCNC(=O)CCc2cc(C(C)(C)C)c(O)c(C(C)(C)C)c2)cc(C(C)(C)C)c1O [Irganox-1098] |  |  |  | 55.3 ± 6.4
9 | O=C(O)c1cccc(C(=O)O)c1 [Isophthalic-acid] |  |  |  | 12.5 ± 5.4
10 | CC(C)C1C2CCC1c1c(NC(=O)c3cn(C)nc3C(F)F)cccc12 (stereo not drawn) [Isopyrazam] |  | 56.7 ± 6.3 | 42.1 ± 4.9 | 72.1 ± 4.6
11 | CC[C@H](C)[C@H]1O[C@]2(CC[C@@H]1C)C[C@@H]1C[C@@H](C/C=C(\C)[C@@H](O[C@H]3C[C@H](OC)[C@@H](O[C@H]4C[C@H](OC)[C@@H](O)[C@H](C)O4)[C@H](C)O3)[C@@H](C)/C=C/C=C3\CO[C@@H]4[C@H](O)C(C)=C[C@@H](C(=O)O1)[C@]34O)O2 [Ivermectin B1a] | 16.6 ± 4.9 |  |  | 
12 | CC[C@H](C)[C@H]1O[C@]2(CC[C@@H]1C)C[C@@H]1C[C@@H](C/C=C(\C)[C@@H](O[C@H]3C[C@H](OC)[C@@H](O[C@H]4C[C@H](OC)[C@@H](O)[C@H](C)O4)[C@H](C)O3)[C@@H](C)/C=C/C=C3\CO[C@@H]4[C@H](O)C(C)=C[C@@H](C(=O)O1)[C@]34O)O2 [Ivermectin-B1a] |  |  | 11.5 ± 2.3 | 30.3 ± 2.3
13 | CNC1(c2ccccc2Cl)CCCCC1=O (stereo not drawn) [Ketamine] | 45.4 ± 6.8 | 10.8 ± 4.5 | 32.2 ± 2.1 | 59 ± 2.7
14 | N[C@@H](Cc1cc(I)c(Oc2cc(I)c(O)c(I)c2)c(I)c1)C(=O)O [L-Thyroxine] |  | 50.6 ± 7.1 | 36.5 ± 3.8 | 30.8 ± 3.3
15 | CCCCCCCCCCCCOC(=O)c1cc(O)c(O)c(O)c1 [Lauryl-gallate] |  |  | 21.9 ± 6.3 | 
16 | CC[C@@H](C(N)=O)N1CCCC1=O [Levetiracetam] |  |  | 21.4 ± 8.7 | 78 ± 3.8
17 | CCN(CC)CC(=O)Nc1c(C)cccc1C [Lidocaine] | 42.3 ± 6.8 | 1.08 ± 0.9 | 37.5 ± 7.4 | 67.9 ± 4.2
18 | CCC[C@@H]1C[C@@H](C(=O)N[C@@H]([C@H]2O[C@H](SC)[C@H](O)[C@@H](O)[C@H]2O)[C@@H](C)O)N(C)C1 [Lincomycin] | 42.1 ± 11 |  |  | 74.7 ± 4.9
19 | CON(C)C(=O)Nc1ccc(Cl)c(Cl)c1 [Linuron] | 50.2 ± 7.8 | 46.9 ± 7.1 | 50.1 ± 0.84 | 69.6 ± 2.5
20 | C[C@@H](O)CCCCn1c(=O)c2c(ncn2C)n(C)c1=O [Lisofylline] |  | 42.8 ± 3.6 | 35.7 ± 3.2 | 76.1 ± 3.5

Row | Compound | chemical recovery [1] [%] | chemical recovery [2] [%] | chemical recovery [3] [%] | chemical recovery [4] [%]
21 | Cc1cc(Cl)ccc1OCCCC(=O)O [MCPB] |  | 44.6 ± 2 | 35.9 ± 1.6 | 66.9 ± 4.5
22 | C#CCOc1ccc(CCNC(=O)C(OCC#C)c2ccc(Cl)cc2)cc1OC (stereo not drawn) [Mandipropamid] |  | 70.3 ± 10 | 58.4 ± 2.1 | 82.4 ± 3.2
23 | Nc1nc(N)nc(N)n1 [Melamine] | 0.589 ± 1.2 | 2.47 ± 0.79 | 1.58 ± 0.33 | 
24 | CC#Cc1cc(C)nc(Nc2ccccc2)n1 [Mepanipyrim] |  |  |  | 70.7 ± 2.9
25 | C[N+]1(C)CCCCC1 [Mepiquat] | 11.3 ± 9.5 | 0.578 ± 0.063 | 0.813 ± 0.44 | 108 ± 18
26 | Cc1nnc(-c2ccccc2)c(=O)n1N [Metamitron] | 92.5 ± 14 | 53 ± 4.2 | 46.3 ± 4.3 | 70.3 ± 0.41
27 | CNC(=O)Oc1cc(C)c(S(C)(=O)=O)c(C)c1 [Methiocarb-sulfone] |  | 0.129 ± 0.019 | 19.9 ± 1.6 | 
28 | CNC(=O)Oc1cc(C)c(SC)c(C)c1 [Methiocarb] | 0.163 ± 0.33 | 0.0787 ± 0.035 | 32.8 ± 0.78 | 
29 | CNC(=O)O/N=C(\C)SC [Methomyl] |  | 50.6 ± 5 | 47.3 ± 1.8 | 75.8 ± 3.8
30 | Cn1sc(Cl)cc1=O [Methylchloroisothiazolinone] | 0.321 ± 0.64 |  | 0.906 ± 0.2 | 0.0132 ± 0.023
31 | COc1cc(C)c(C(=O)c2c(OC)ccc(Br)c2C)c(OC)c1OC [Metrafenone] |  |  | 50.3 ± 9.1 | 76.4 ± 4.6
32 | CN(C)C(=O)Nc1ccc(Cl)cc1 [Monuron] |  | 60.2 ± 3.6 | 49.6 ± 3.1 | 74.2 ± 1.8
33 | COc1c(C(C)(C)C)cc([N+](=O)[O-])c(C)c1[N+](=O)[O-] [Musk ambrette] |  |  | 2.96 ± 0.74 | 
34 | Cc1c([N+](=O)[O-])c(C)c([N+](=O)[O-])c(C(C)(C)C)c1[N+](=O)[O-] [Musk xylene] |  |  | 97.1 ± 31 | 33.5 ± 9.3
35 | CCN(CC)c1ccccc1 [N,N-Diethylaniline] |  | 0.987 ± 1.6 | 5.76 ± 3.4 | 0.0912 ± 0.079
36 | CCCCCCCCCCCCN(C)C [N,N-Dimethyldodecylamine] | 42.1 ± 8.8 |  |  | 78.3 ± 23
37 | CC(C)CC(C)Nc1ccc(Nc2ccccc2)cc1 (stereo not drawn) [N-(1,3-Dimethylbutyl)-N'-phenyl-1,4-phenylenediamine] |  |  | 1.42 ± 1.6 | 
38 | CCNS(=O)(=O)C(F)(F)C(F)(F)C(F)(F)C(F)(F)C(F)(F)C(F)(F)C(F)(F)C(F)(F)F [N-Ethylperfluorooctane-sulfonamide] |  |  | 2.91 ± 0.86 | 
39 | CN(C1CCCCC1)C1CCCCC1 [N-Methyl-dicyclohexylamine] |  | 0.654 ± 0.19 | 30.9 ± 1.6 | 50.9 ± 7.1
40 | CCN(CC)C(=O)C(C)Oc1cccc2ccccc12 (stereo not drawn) [Napropamide] |  |  |  | 70.6 ± 2.5

The next lines start with the values.

Row | chemical recovery [1] [%] | chemical recovery [2] [%] | chemical recovery [3] [%] | chemical recovery [4] [%] | Compound
41 |  | 37.8 ± 2.6 | 41.7 ± 7.2 | 74.6 ± 2.9 | COc1ccc2[nH]cc(CCNC(C)=O)c2c1 [Melatonin]
42 | 48.8 ± 6.8 | 0.434 ± 0.15 | 35.9 ± 3 | 61 ± 4.4 | CC1CCN(CCCC(=O)c2ccc(F)cc2)CC1 [Melperon]
43 |  | 40.3 ± 5.8 | 41.4 ± 2.8 | 74.9 ± 5.7 | COC(=O)c1ccc(CNS(C)(=O)=O)cc1S(=O)(=O)NC(=O)Nc1nc(OC)cc(OC)n1 [Mesosulfuron-methyl]
44 |  | 53 ± 3.3 | 49.5 ± 3.9 | 73.9 ± 3.2 | Cc1nnc(-c2ccccc2)c(=O)[nH]1 [Metamitron-desamino]
45 |  | 49 ± 6.5 | 40.1 ± 3.3 | 73.7 ± 3.7 | Cc1cccc(C)c1N(Cn1cccn1)C(=O)CO [Metazachlor-2-hydroxy]
46 |  | 0.198 ± 0.34 |  |  | C=C(C)C(N)=O [Methacrylamide]
47 |  | 71.6 ± 6.9 | 47.4 ± 5.3 | 73.1 ± 4.4 | Cc1cc(O)cc(C)c1[S+](C)[O-] (stereo not drawn) [Methiocarb-sulfoxide-phenol]
48 |  | 40.6 ± 2.7 | 36.1 ± 3.5 | 70.6 ± 2 | COc1ccccc1OCC(O)COC(N)=O (stereo not drawn) [Methocarbamol]
49 | 38.1 ± 4.1 | 60.3 ± 4 | 60.1 ± 3.9 |  | CN(Cc1cnc2nc(N)nc(N)c2n1)c1ccc(C(=O)N[C@@H](CCC(=O)O)C(=O)O)cc1 [Methotrexate]
50 |  |  | 24.9 ± 3.3 | 57.6 ± 7 | COC(=O)CCc1cc(C(C)(C)C)c(O)c(C(C)(C)C)c1 [Methyl-3-(3,5-di-tert-butyl-4-hydroxyphenyl)propionate]
51 |  | 41.1 ± 5 | 33.5 ± 2.9 | 54.1 ± 9.1 | CC(C)NCC(O)COc1ccc(CC(=O)O)cc1 (stereo not drawn) [Metoprolol acid]
52 |  |  | 52.1 ± 13 | 47.1 ± 8.4 | CC(C)NCC(O)COc1ccc(CC(=O)O)cc1 (stereo not drawn) [Metoprolol-acid]
53 | 44 ± 5.4 | 21.9 ± 2.5 | 36.2 ± 2.6 | 75.2 ± 2.3 | COCCc1ccc(OCC(O)CNC(C)C)cc1 (stereo not drawn) [Metoprolol]
54 |  |  | 21.2 ± 3.4 | 70.6 ± 4.1 | Cc1ncc([N+](=O)[O-])n1CCO [Metronidazole]
55 | 29.9 ± 9.5 | 0.274 ± 0.11 | 30.4 ± 2.3 | 69.4 ± 3.5 | CN1CCN2c3ncccc3Cc3ccccc3C2C1 (stereo not drawn) [Mirtazapine]
56 |  |  | 44.7 ± 3.3 | 65.5 ± 6.9 | CC(C)COC(=O)c1ccccc1C(=O)O [Mono-iso-butyl-phthalate]
57 |  | 59.6 ± 9.9 | 57.7 ± 4.3 | 65.3 ± 7.2 | O=C(O)c1ccccc1C(=O)OCc1ccccc1 [Monobenzyl-phthalate]
58 |  |  | 1.17 ± 0.25 | 15.5 ± 3.3 | CC(=O)c1c(C)c([N+](=O)[O-])c(C(C)(C)C)c([N+](=O)[O-])c1C [Musk ketone]
59 |  | 27.7 ± 10 | 13.6 ± 0.95 |  | CCCCCCCCCC(=O)N(C)C [N,N-Dimethyldecan-1-amide]
60 |  | 42.3 ± 14 | 39.9 ± 3.7 |  | C=C(C)C(=O)NCCCN(C)C [N-(3-Dimethylamino)propyl)methacrylamide]
61 |  | 44.5 ± 5.9 | 43.1 ± 2.7 |  | CC(=O)Nc1c(C)n(C)n(-c2ccccc2)c1=O [N-Acetyl-4-aminoantipyrine]
62 |  | 29.2 ± 9.2 | 37.3 ± 0.9 | 57.5 ± 1 | CCNC(=O)c1cccc(C)c1 [N-Ethyl-3-methylbenzamide]
63 |  |  | 47.5 ± 6 | 74.2 ± 3.9 | CCCCCCCCCCCC(=O)NCCO [N-Lauroylethanolamine]
64 |  |  |  | 1.36 ± 2.4 | CN1CCCC1=O [N-Methyl-2-pyrrolidone]
65 |  | 35 ± 8.6 | 38.2 ± 3 | 88 ± 3.1 | CNC(=O)c1ccccc1 [N-Methylbenzamide]
66 |  |  |  | 77.4 ± 3.4 | CNS(=O)(=O)c1ccccc1 [N-Methylbenzenesulfonamide]
67 |  | 0.141 ± 0.063 | 0.399 ± 0.15 | 49.1 ± 4.3 | CN1CCC[C@H]1c1cccnc1 [Nicotine]
68 | 54.8 ± 8.6 |  |  |  | O=C1CN(/N=C/c2ccc([N+](=O)[O-])o2)C(=O)N1 [Nitrofurantoin]
